For data set [1], the system named is TTR. In words: TTR editing in mouse liver by NGS after i.v. LNP delivery of Cas9 mRNA and sgRNA. It is filed as in vivo. The note with it: CD-1 female mice; for % Editing (TTR, liver): Example 55: 0.1 mpk i.v. The procedure:
Preparations of various LNP compositions were prepared with amine lipids. In assays for percent liver editing in mice, Cas9 mRNA and chemically modified sgRNA were formulated in LNPs, at either a 1:1 w/w ratio or a 1:2 w/w ratio. LNPs are formulated with a composition of a given ionizable lipid (e.g. an amine lipid), DSPC, cholesterol, and PEG-2k-DMG, with a 6.0 N:P ratio.
(§1) CD-1 female mice, ranging from 6-10 weeks of age were used in each study. Animals were weighed and grouped according to body weight for preparing dosing solutions based on group average weight. LNPs were dosed via the lateral tail vein in a volume of 0.2 mL per animal (approximately 10 mL per kilogram body weight). The animals were periodically observed post dose for adverse effects for at least 24 hours post dose. Animals were euthanized at 6 or 7 days by exsanguination via cardiac puncture under isoflurane anesthesia. Blood was collected into serum separator tubes or into tubes containing buffered sodium citrate for plasma as described herein. For studies involving in vivo editing, liver tissue was collected from each animal for DNA extraction and analysis.
Cohorts of mice were measured for liver editing by Next-Generation Sequencing (NGS).
In brief, to quantitatively determine the efficiency of editing at the target location in the genome, genomic DNA was isolated and deep sequencing was utilized to identify the presence of insertions and deletions introduced by gene editing.
PCR primers were designed around the target site (e.g., B2M), and the genomic area of interest was amplified. Additional PCR was performed according to the manufacturer's protocols (Illumina) to add the necessary chemistry for sequencing. The amplicons were sequenced on an Illumina MiSeq instrument. The reads were aligned to the […] after eliminating those having low quality scores. The resulting files containing the reads were mapped to the reference genome (BAM files), where reads that overlapped the target region of interest were selected and the number of wild type reads versus the number of reads which contain an insertion, substitution, or deletion was calculated.
The editing percentage (e.g., the “editing efficiency” or “percent editing”) is defined as the total number of sequence reads with insertions or deletions over the total number of sequence reads, including wild type.
CD-1 female mice were dosed i.v. at 0.1 mpk or 0.3 mpk. At 6 days post-dose, animals were sacrificed. For animals dosed with G282 targeting TTR, blood and the liver were collected and serum TTR and editing were measured. For animals dosed with G650 targeting B2M, liver was collected and editing was measured.

For data set [2], the system named is TTR. Nature of the data set: Transthyretin (TTR) ELISA analysis of mouse serum after LNP dosing. The format is in vivo. The procedure:
as §1
CD-1 female mice were dosed i.v. at 0.1 mpk or 0.3 mpk. […] For animals dosed with G282 targeting TTR, blood and the liver were collected and serum TTR and editing were measured. For animals dosed with G650 targeting B2M, liver was collected and editing was measured.
Blood was collected and the serum was isolated as indicated. The total mouse TTR serum levels were determined using a Mouse Prealbumin (Transthyretin) ELISA Kit (Aviva Systems Biology, Cat. OKIA00111). Briefly, sera were serial diluted with kit sample diluent to a final dilution of 10,000-fold for 0.1 mpk dose and 2,500-fold for 0.3 mpk. This diluted sample was then added to the ELISA plates and the assay was then carried out according to directions.

The nature of data set [3]: pKa measurement of unformulated amine lipid (fluorescence, method of Jayaraman et al.). It is filed as physicochemical. To be noted: 100 μM in 0.1 M phosphate buffer pH 4.5-9.0. The method, then:
The pKa of each amine lipid was determined according to the method in Jayaraman, et al. (Angewandte Chemie, 2012) with the following adaptations. […] Lipid was diluted to 100 μM in 0.1 M phosphate buffer (Boston Bioproducts) where the pH ranged from 4.5-9.0. Fluorescence intensity was measured using excitation and emission wavelengths of 321 nm and 448 nm.

[4] abbreviates: Example 55: 0.1 mpk i.v., 7 days post-dose, G282 1:1.
Setting [5] is: Example 61: 0.1 mpk i.v., 7 days post-dose, G282 1:1.
Setting [6] is: Mus musculus, iv, 168 h, Example 61: 0.1 mpk i.v., 7 days post-dose, G282 1:1, read-out: Serum TTR % TSS.
Where [7] appears, read: Example 59: 0.1 mpk i.v., 7 days post-dose, G282 1:1.
Where [8] appears, read: Example 62: 0.03 mpk i.v., 7 days post-dose, G282 1:2.
[9] abbreviates: Example 62: 0.1 mpk i.v., 7 days post-dose, G282 1:2.
The mark [10] stands for this setting: Example 64: Dose 0.03 mpk (table) i.v., 7 days post-dose, G282 1:1.
The mark [11] stands for this setting: Example 58: 0.1 mpk i.v., 6 days post-dose, G282 1:1.

Each structure is given as a SMILES string. Like-named read-outs stand apart in the source and are kept apart here.

Consider 19 molecules from patent US20260225997A1, “IONIZABLE AMINE LIPIDS” (Intellia Therapeutics, Inc., priority 2018, published 2026).

In general, pKa refers to the negative logarithm of the acid dissociation constant. Read a high pKa as a group that holds its proton tightly. On to `CCCCCCCCCOC(=O)CCCCCCCN(CCO)CCCCCCCC(OCCCCCCC)OCCCCCCC` [Compound 7, nonyl 8-((8,8-bis(heptyloxy)octyl)(2-hydroxyethyl)amino)octanoate], for which the “% Editing (TTR, liver)” value with TTR [1] (7 days post-dose, G282 1:1) is 50%. In addition, in the data set with TTR [2] (setting [4]), the “Serum TTR” value worked out at 234 µg/mL and the “Serum TTR (% TSS)” value is given as 21 % TSS. The molecule also returned a pKa in data set [3] of 6.16.
On to `CCCCCCCCCOC(=O)CCCCCCCN(CCO)CCCCCCCC(OCCCCCC)OCCCCCC` [Compound 8, nonyl 8-((8,8-bis(hexyloxy)octyl)(2-hydroxyethyl)amino)octanoate], for which the “% Editing (TTR, liver)” value in the data set with TTR [1] (7 days post-dose, G282 1:1) is 43%. Further, in the data set with TTR [2] (setting [4]), the “Serum TTR” value stood at 387 µg/mL and the “Serum TTR (% TSS)” value turned out to be 34 % TSS. The same molecule showed a pKa in data set [3] of 6.37.
Turning to `CCCCCCCCCOC(=O)CCCCCCCN(CCO)CCCCCCCCC(OCCCCCCCC)OCCCCCCCC` [Compound 9, nonyl 8-((9,9-bis(octyloxy)nonyl)(2-hydroxyethyl)amino octanoate], the “Editing Mean % Indel” value in the data set with TTR [1] (setting [5]) was determined as 52.1%. In addition, the “Serum TTR” value with TTR [2] (setting [5]) was 218 µg/mL. For the same molecule, the response vs control in vivo at 0.1 mg/kg in the data set with TTR [2] (setting [6]) turned out to be 17%. The same molecule yielded a pKa in data set [3] of 6.12.
As for `CCCCCCCCCOC(=O)CCCCCCCN(CCO)CCCCCCC(OCCCCCCCC)OCCCCCCCC` [Compound 10, nonyl 8-((7,7-bis(octyloxy)heptyl)(2-hydroxyethyl)amino)octanoate], in the data set on TTR [1] (7 days post-dose, G282 1:1), the “% Editing (TTR, liver)” value is 50%. Also, the “Editing Mean % Indel” value turned out to be 60.1% in the data set with TTR [1] (setting [7]); 47.2% in the data set on TTR [1] (setting [5]); 15.6% in the data set with TTR [1] (setting [8]); 51.3% with TTR [1] (setting [9]); 27.2% with TTR [1] (setting [10]). Besides, the “Serum TTR” value in the data set on TTR [2] (setting [4]) amounted to 206 µg/mL; with TTR [2] (setting [7]) it was 80 µg/mL; in the data set on TTR [2] (setting [5]), 330 µg/mL; with TTR [2] (setting [8]) it was 424 µg/mL; in the data set on TTR [2] (setting [9]), 179 µg/mL; with TTR [2] (setting [10]), 409.2 µg/mL. Besides, the “Serum TTR (% TSS)” value in the data set on TTR [2] (setting [4]) was determined as 18 % TSS. Also, the response vs control in vivo at 0.1 mg/kg with TTR [2] (Mus musculus, iv, 168 h, Example 59: 0.1 mpk i.v., 7 days post-dose, G282 1:1, read-out: Serum TTR % TSS) turned out to be 9%; in the data set with TTR [2] (setting [6]), 26%; in the data set on TTR [2] (Mus musculus, iv, 168 h, Example 62: 0.1 mpk i.v., 7 days post-dose, G282 1:2, read-out: Serum TTR % TSS) it was 28%. For the same molecule, the response vs control in vivo at 0.03 mg/kg in the data set on TTR [2] (Mus musculus, iv, 168 h, Example 62: 0.03 mpk i.v., 7 days post-dose, G282 1:2, read-out: Serum TTR % TSS) amounted to 67%. Moreover, the inhibition in vivo at 0.03 mg/kg with TTR [2] (Mus musculus, iv, 168 h, Example 64: Dose 0.03 mpk (table) i.v., 7 days post-dose, G282 1:1, read-out: Serum TTR (% KD)) was 28.5%. The pKa in data set [3] was determined as 6.05.
With `CCCCCCCCCCOC(=O)CCCCCCN(CCO)CCCCCCCC(OCCCCCCCC)OCCCCCCCC` [Compound 12, decyl 7-((8,8-bis(octyloxy)octyl)(2-hydroxyethyl)amino)heptanoate], in the data set with TTR [1] (setting [11]), the “Editing Mean % Indel” value is recorded as 33.0%. For the same molecule, the “Serum TTR” value with TTR [2] (setting [11]) turned out to be 490 µg/mL. Moreover, in the data set on TTR [2] (Mus musculus, iv, 144 h, Example 58: 0.1 mpk i.v., 6 days post-dose, G282 1:1, read-out: Serum TTR % TSS), the response vs control in vivo at 0.1 mg/kg was 50%. In data set [3], this molecule displayed a pKa of 6.38.
As for `CCCCCCCCOC(CCCCCCCN(CCO)CCCCCCCC(=O)OC(C)CCCCCCCC)OCCCCCCCC` (stereo not shown) [Compound 21, decan-2-yl 8-((8,8-bis(octyloxy)octyl)(2-hydroxyethyl)amino)octanoate], in data set [3], the pKa was found to be 5.99.
Same read-out and setting: to `CCCCCCCCOC(CCCCCCCN(CCO)CCCCCCCCCCOC(=O)CCCCCC)OCCCCCCCC` [Compound 24, 10-((8,8-bis(octyloxy)octyl)(2-hydroxyethyl)amino)decyl heptanoate] belongs 5.95; to `CCCCCCCCOC(CCCCCCN(CCO)CCCCCCCC(=O)OCCCCCCC)OCCCCCCCC` [Compound 31, heptyl 8-((7,7-bis(octyloxy)heptyl)(2-hydroxyethyl)amino)octanoate], 6.47.
Regarding `CCCCCCCCOC(CCCCCCN(CCO)CCCCCCCC(=O)OC(C)CCCCCC)OCCCCCCCC` (stereo not shown) [Compound 32, octan-2-yl 8-((7,7-bis(octyloxy)heptyl)(2-hydroxyethyl)amino)octanoate], the pKa in data set [3] was 6.36.
For the molecule `CCCCCCCCOC(CCCCCCN(CCO)CCCCCCCC(=O)OC(CC)CCCCCC)OCCCCCCCC` (stereo not shown) [Compound 33, nonan-3-yl 8-((7,7-bis(octyloxy)heptyl)(2-hydroxyethyl)amino)octanoate], in data set [3], the pKa worked out at 6.33.
As to `CCCCCCCCOC(CCCCCCN(CCO)CCCCCCCC(=O)OCCCCC)OCCCCCCCC` [Compound 34, pentyl 8-((7,7-bis(octyloxy)heptyl)(2-hydroxyethyl)amino)octanoate], the pKa in data set [3] is 6.47.
`CCCCCCCCOC(CCCCCCN(CCO)CCCCCCCC(=O)OC(CC)CCCC)OCCCCCCCC` (stereo not shown) [Compound 35, heptan-3-yl 8-((7,7-bis(octyloxy)heptyl)(2-hydroxyethyl)amino)octanoate] yielded a pKa in data set [3] of 6.37.
`CCCCCCCCCOC(=O)CCCCCCCN(CCN)CCCCCCC(OCCCCCCCC)OCCCCCCCC` [Compound 36, nonyl 8-((2-aminoethyl)(7,7-bis(octyloxy)heptyl)amino)octanoate]: in data set [3], the pKa came to 7.2.
On the same count and under the same terms, next, `CCCCCCCCCOC(=O)CCCCCCCN(CCCO)CCCCCCC(OCCCCCCCC)OCCCCCCCC` [Compound 37, nonyl 8-((7,7-bis(octyloxy)heptyl)(3-hydroxypropyl)amino)octanoate]: 6.3; `CCCCCCCCCOC(=O)CCCCCCCN(CCCN)CCCCCCC(OCCCCCCCC)OCCCCCCCC` [Compound 38, nonyl 8-((3-aminopropyl)(7,7-bis(octyloxy)heptyl)amino)octanoate]: 7.81; `CCCCCCCCCOC(=O)CCCCCCCN(CCCCCCC(OCCCCCCCC)OCCCCCCCC)CCNS(C)(=O)=O` [Compound 47, nonyl 8-((7,7-bis(octyloxy)heptyl)(2-(methylsulfonamido)ethyl)amino)octanoate]: 6.93.
`CCCCCCCCCOC(=O)CCCCCCCN(CCCCCCC(OCCCCCCCC)OCCCCCCCC)CCCNS(C)(=O)=O` [Compound 48, nonyl 8-((7,7-bis(octyloxy)heptyl)(3-(methylsulfonamido)propyl)amino)octanoate]: in data set [3], the pKa stood at 7.61.
The molecule `CCCCCCCCCOC(=O)CCCCCCCN(CCCCCCC(OCCCCCCCC)OCCCCCCCC)CCOC(C)=O` [Compound 49, nonyl 8-((2-acetoxyethyl)(7,7-bis(octyloxy)heptyl)amino)octanoate] came in with a pKa in data set [3] of 5.32.
Still for that read-out and setting: to `CCCCCCCCCOC(=O)CCCCCCCN(CCCCCCC(OCCCCCCCC)OCCCCCCCC)CCCOC(C)=O` [Compound 50, nonyl 8-((3-acetoxypropyl)(7,7-bis(octyloxy)heptyl)amino)octanoate] belongs 5.45.
